Paper PMC12670164, “In vitro and clinical data demonstrate negligible risk of drug–drug interactions with opelconazole, a novel inhaled antifungal agent” (Journal of Antimicrobial Chemotherapy, 2025)
Values after ≈ are worked out from the molar mass of the structure shown. Values joined by “and” are separate entries in the source; they are usually repeats but may differ in a detail not shown here. Identical values can stand only once. Like-named read-outs stand apart in the source and are kept apart here.

Assays:
CYP isoforms = assay: Initial CYP inhibition study in human liver microsomes; assay type: in vitro ADME; details: opelconazole 0.03 to 5 μM
[1] = Phase 1 study: safety and tolerability; assay type: in vivo, human
Protocol: Safety and tolerability were assessed by monitoring the incidence, nature and severity of adverse events (AEs) as well as by vital-sign measurements, 12-lead ECGs, clinical laboratory testing (haematology, chemistry and urinalysis), physical examination and lung function testing [forced expiratory volume in one second (FEV1) and forced vital capacity (FVC)].

[2] = Phase 1 study: plasma pharmacokinetics of inhaled opelconazole in healthy volunteers; assay type: in vivo, human
Protocol: The study was conducted from February 2023 through June 2023 in accordance with the Declaration of Helsinki, Good Clinical Practice, and the International Conference on Harmonisation guidelines (South African National Clinical Trial Registry code: DOH-27-122022-5196). The study documents were approved by an Independent Ethics Committee. Study participants provided written informed consent prior to any study procedures.
Screening occurred within 28 days prior to the first dosing day (Figure 1). Participants were admitted to the study centre on Day −1 and were required to stay there until approximately 48 h after the morning dosing on Day 15. They returned for subsequent PK blood samples at approximately 72 (Day 18), 168 (Day 22) and 336 h (Day 29) after the last morning dosing. On Days 1 and 15, participants received oral midazolam 7.5 mg and oral caffeine 180 mg together after food ingestion.
Standard doses of midazolam and caffeine were used to characterize their PK profiles. The dose selected for opelconazole, 14.8 mg twice daily, is the dose utilized in the clinical development programme for the treatment and prevention of invasive pulmonary aspergillosis (IPA). Following 14 days of twice daily dosing, plasma concentrations were expected to be within 80% of steady-state concentrations and deemed appropriate to assess potential interactions with the probe substrates.
Study participants inhaled opelconazole 14.8 mg twice daily using the PARI LC SPRINT® jet nebuliser for 14 days, starting on Day 2 through Day 15. Morning doses of opelconazole on Day 2 and Day 15 were taken 30 min after food ingestion. Blood samples were taken for PK analyses for midazolam, metabolites of midazolam (1-OH-midazolam and 4-OH-midazolam) and caffeine on Days 1 and 15 at pre-dose (0 h), at 0.5, 1, 1.5, 2, 3, 4, 6, 8, 10, 12, 16, 24, 30, 36 and 48 h post-dose on Days 1 and 15. Blood samples were taken for PK analyses for opelconazole as follows: on Day 2 at pre-morning dose (0 h), at 0.5, 1, 2, 4, 6, 8, 12 and 24 h post-morning dose; on Day 15: at pre-morning-dose (0 h), at 0.5, 1, 2, 4, 6, 8, 10, 12, 24 (Day 16), 30 (Day 16), 36 (Day 16), 48 (Day 17), 72 (Day 18), 168 (Day 22) and 336 (Day 29) h post-morning-dosing.
Primary PK parameters assessed for midazolam and its metabolites (1-OH-midazolam, 4-OH-midazolam), caffeine and opelconazole were Cmax and AUC, from time zero to t, where t is the time of the last quantifiable concentration (AUC(0−t); i.e., AUC(0−12) and AUC(0−24)). Secondary PK parameters were AUC(0−∞), Tmax, apparent t1/2 and accumulation ratio (RO) of opelconazole only.

CYP2B6 = assay: CYP induction, mRNA endpoint, cryopreserved human hepatocytes; assay type: in vitro ADME; details: any of the three donors
Protocol: The hepatocyte cells were dosed with opelconazole (0.012, 0.03, 0.12, 0.3, 1.2 and 3 μM) and positive control compounds (omeprazole for CYP1A2 and rifampicin for CYP3A4).

[3] = design: method as in PMID 33340279; details: available PK data, cited from earlier work
CYP3A4 [4] = target: T1, CYP3A4 (Homo sapiens, UniProt P08684); assay type: in vitro ADME; details: incubated with 0.01 and 0.1 µM opelconazole
T1 sequence (P08684 whole entry): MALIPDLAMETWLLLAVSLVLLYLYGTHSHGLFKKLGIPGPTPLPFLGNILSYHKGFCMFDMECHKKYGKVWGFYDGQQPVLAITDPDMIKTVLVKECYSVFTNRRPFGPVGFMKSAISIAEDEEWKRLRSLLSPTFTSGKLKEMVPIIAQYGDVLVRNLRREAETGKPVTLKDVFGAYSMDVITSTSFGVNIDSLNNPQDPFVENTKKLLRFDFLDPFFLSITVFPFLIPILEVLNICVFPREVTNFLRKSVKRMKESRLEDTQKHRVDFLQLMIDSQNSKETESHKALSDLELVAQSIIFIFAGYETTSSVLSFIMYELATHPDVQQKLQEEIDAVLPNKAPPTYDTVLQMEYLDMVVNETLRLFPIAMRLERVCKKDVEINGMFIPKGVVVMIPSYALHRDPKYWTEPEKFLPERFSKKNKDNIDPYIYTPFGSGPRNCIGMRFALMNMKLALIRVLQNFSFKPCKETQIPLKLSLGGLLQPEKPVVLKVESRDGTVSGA
Protocol: The testing of opelconazole as a potential substrate of CYP1A2, 2B6, 2C8, 2C9, 2C19, 2D6 and 3A4 was determined in vitro using recombinant CYP enzymes. Two concentrations of opelconazole (0.01 and 0.1 µM) were tested with each of the seven CYPs.
The relative contributions of CYP3A4 and CYP2C9 were ∼75% and 25%, respectively, when incubated with 0.01 and 0.1 µM opelconazole.

CYP1A2 = assay: CYP induction, mRNA endpoint, cryopreserved human hepatocytes; details: for CYP1A2 mRNA increase: concentration-dependent, 72 h
Protocol: The potential for opelconazole to act as an inducer of CYP isoforms CYP1A2, CYP2B6 and CYP3A4 was assessed in vitro using an mRNA endpoint across three donors in cryopreserved human hepatocytes. A drug is interpreted as an inducer if: (1) it increases mRNA expression of a CYP enzyme in a concentration-dependent manner and (2) the fold change of CYP mRNA expression relative to vehicle control is ≥2-fold at the drug’s expected hepatic concentrations.[23]
A cytotoxicity assessment using MTT was performed in one of the three donors used for the induction studies prior to dosing.

[5] = test system: Aspergillus fumigatus clinical strains; design: method as in PMID 33340279; details: cited from earlier work
CYP3A4 [6] = target: T1, CYP3A4; details: for IC50: read-out: IC50, CYP3A4
Protocol: The potential for opelconazole to inhibit CYP isoforms was tested in vitro in human liver microsomes. […] Preincubation of the human liver microsomes for periods of 0 min without NADPH and 30 min with NADPH, plus 30 min without NADPH were included to assess for a time-dependent inhibition effect. Two structurally diverse substrates (testosterone and midazolam) were tested to assess substrate-dependent inhibition.

[7] = Day 2, inhaled 14.8 mg twice daily
[8] = Day 15, after 14 days inhaled 14.8 mg twice daily
[9] = substrate midazolam, 30-min preincubation

Cc1cc(N2CCN(c3ccc(C(=O)Nc4ccc(F)cc4)cc3)CC2)ccc1OC[C@@H]1CO[C@@](Cn2cncn2)(c2ccc(F)cc2F)C1 [opelconazole]
CYP inhibition, initial study (CYP isoforms): limited to CYP3A4
headache considered related to inhaled opelconazole, participants ([1]; 5/24 participants, all mild, 14.8 mg twice daily for 14 days with midazolam/caffeine): 20.8%
post-dose acute bronchospasm ([1]; any participant who received opelconazole): no evidence
changes in lung function (FEV1 and FVC) ([1]; any timepoint during the study): No clinically significant changes
deaths or serious AEs ([1]; healthy volunteers N = 24, 14.8 mg twice daily for 14 days): No deaths or serious AEs were reported
tolerability ([1]; inhaled 14.8 mg twice daily): generally well tolerated
AUC(0–12 h), geometric mean (CV%) ([2]; Day 2 (first dosing day), inhaled 14.8 mg twice daily): 7.81 (27.8) h·ng/mL
AUC(0-t), geometric mean (CV%) [2, 7]: 19.9 (29.4) h·ng/mL
AUC(0–24 h), geometric mean (CV%) [2, 7]: 19.6 (29.4) h·ng/mL
Cmax, geometric mean (CV%) [2, 7]: 0.91 (29.3) ng/mL
Tmax, median (range) [2, 7]: 6.17 (2.17, 12.1) h
AUC(0-t), geometric mean (CV%) [2, 8]: 1270 (45.8) h·ng/mL
AUC(0–12 h), geometric mean (CV%) [2, 8]: 69.8 (45.4) h·ng/mL
AUC(0–24 h), geometric mean (CV%) [2, 8]: 136 (46.7) h·ng/mL
Cmax, geometric mean (CV%) [2, 8]: 7.07 (47.2) ng/mL
Tmax, median (range) [2, 8]: 4.17 (0.67, 48.0) h
t½, geometric mean (CV%) [2, 8]: 188 (21.4) h
AUC(0−∞), geometric mean (CV%) ([2]; Day 15, inhaled 14.8 mg twice daily, n=2): 1720 (31.2) h·ng/mL
RO (accumulation ratio) AUC(0–12 h) Day 15/Day 2, geometric mean (CV%) ([2]; inhaled 14.8 mg twice daily): 8.93 (38.4)
RO (accumulation ratio) AUC(0–24 h) Day 15/Day 2, geometric mean (CV%) ([2]; inhaled 14.8 mg twice daily): 6.97 (35.8)
RO (accumulation ratio) Cmax Day 15/Day 2, geometric mean (CV%) ([2]; inhaled 14.8 mg twice daily): 7.77 (46.7)
observed RO (Day 15/Day 2) for AUC0–12h ([2]; inhaled 14.8 mg twice daily): 8.9 fold
observed RO (Day 15/Day 2) for Cmax ([2]; inhaled 14.8 mg twice daily): 7.8 fold
Cmax ([2]; multiple inhaled doses, clinical dosing, read-out: systemic Cmax at steady state): 10 nM and ≤ 10 nM
CYP2B6 mRNA expression (CYP2B6): did not increase mRNA expression
Cmax (low systemic exposure) [3]: 1 ng/mL
Cmax ([3]; read-out: Cmax (low systemic exposure)): 1.6 nM
relative contribution of CYP3A4 to metabolism of opelconazole (CYP3A4 [4]): ~75%
opelconazole concentration giving threshold induction outcome (CYP1A2; CYP1A2, in vitro): 0.3 μM and 204 ng/mL
CYP1A2 mRNA increase (CYP1A2; donor 1, opelconazole ≥0.3 μM): 2.72 fold
CYP1A2 mRNA increase (CYP1A2; donor 2, opelconazole ≥0.3 μM): 1.97 fold
minimal inhibitory concentration required to inhibit 90% of clinical strains [5]: 1 µg/mL
IC50 (CYP3A4 [6]; [9]): ~150 nM
IC50 (CYP3A4 [6]; substrate midazolam, without pre-incubation, 0.001–0.25 µM): 123 nM
IC50 (CYP3A4 [6]; substrate testosterone, 30-min preincubations with or without NADPH): 150 nM
IC50 (CYP3A4 [6]; substrate testosterone, without pre-incubation, 0.001–0.25 µM): > 250 nM
IC50, CYP3A4 (CYP3A4 [6]; [9]): ~0.102 µg/mL (≈ 0.149 µM)
time-dependent inhibition of CYP3A4 (CYP3A4 [6]; [9]): not evident
